Here are results for three molecules from US20110251126A1, “INTESTINAL TREATMENT” (priority 2008, published 2011).

One assay has as its system small intestinal crypts. In words: Surviving small intestinal crypts after 13Gy total body X-irradiation. The note with it: analyzed four days following irradiation. The assay is classed as in vivo, mice. On the procedure: Twenty four 8-10 week old C57/B6 male mice randomized into three groups of each eight animals. Animals received PP[2-36] (0.1 mg/kg) s.c. twice daily for three days either prior or post radiation. Controls received vehicle both prior and post radiation.
Group 1 (pretreatment): PP[2-36] (0.1 mg/kg) twice daily on day −3, −2, −1; radiation on day 0; vehicle on day 0, +1, +2, +3. Group 2 (post treatment): Vehicle twice daily on day −3, −2, −1; radiation on day 0; PP[2-36] (0.1 mg/kg twice daily on day 0, +1, +2, +3. Group 3 (control): Vehicle twice daily on day −3, −2, −1; radiation on day 0; vehicle twice daily on day 0, +1, +2, +3. All animals were irradiated (day 0) to a single dose of 13Gy total body X-irradiation. Irradiation was performed using a Pantak HF320 X-ray set (Agfa NDT Ltd, Reading, UK). The machine was operated at 300 kV, 10 mA. The X-ray tube was fitted with additional filtration to give a radiation quality of 2.3 mm Cu half-value layer (HVL). Mice were restrained in a jig, positioned at a distance of 700 mm from the focus of the X-ray tube. Irradiation was delivered at a dose rate of 75.5 cGy/min. […] For each animal ten intestinal circumferences were analyzed—a circumference is equivalent to a given length of intestine and therefore a convenient baseline unit of length. The number of surviving crypts per circumference was scored and the average per group determined. […]

Assay [1] has as its system small intestinal crypt cells. In words: Intestinal crypt cell proliferation (BrdU incorporation, cell positional scoring). The assay is classed as in vivo, mice. The note with it: 12 hours after dose. The procedure:
3 Groups of 8 male 8-10 weeks old C57/B6 mice were treated with group 1: Vehicle, group 2:PP(2-36) 0,1 mg/kg single injection s.c., group 3: PP(2-36) 1,0 mg/kg single injection s.c. Animals were euthanized 12 hours following the single injection of either dose. Vehicle was used as control. Prior to euthanasia all animals were given BrdU (Bromodeoxyuridine) i.p.—a marker for cell proliferation. The small intestine and colon were then removed and fixed in Carnoy's solution. From the Carnoy's fixed small intestinal material, paraffin blocks were generated and sectioned. Slides were immunolabelled to reveal the BrdU incorporation and analyzed on a cell positional basis (i.e. location of the individual cell in the hierarchy of cells in the crypt) to identify any induced proliferative changes (BrdU incorporation and mitotic counts). Fifty half crypts per mouse were scored on a cell positional basis, generating 400 frequency scores per group of 8 animals from which the means were generated and effects analyzed.

The next assay addresses human Y4 receptor (human, UniProt P50391 1-375). Put plainly: cell-based or functional assay.

Ends that are not written are not given here.

human Y4 receptor, sequence (P50391 whole entry): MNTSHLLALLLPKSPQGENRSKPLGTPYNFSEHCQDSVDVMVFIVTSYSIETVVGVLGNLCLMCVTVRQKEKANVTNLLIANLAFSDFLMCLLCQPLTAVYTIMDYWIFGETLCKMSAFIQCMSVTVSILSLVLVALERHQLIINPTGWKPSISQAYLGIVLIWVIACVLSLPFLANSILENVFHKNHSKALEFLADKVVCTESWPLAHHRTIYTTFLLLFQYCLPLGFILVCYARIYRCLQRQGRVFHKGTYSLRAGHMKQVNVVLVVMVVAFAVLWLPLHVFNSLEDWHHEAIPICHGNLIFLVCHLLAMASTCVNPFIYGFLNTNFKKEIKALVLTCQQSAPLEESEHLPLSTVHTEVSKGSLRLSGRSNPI

Turning to “hPP2-36 (PLEPVYPGDNATPEQMAQYAADLRRYINMLTRPRY-NH2; listed as Homo sapiens) [PP[2-36]]”, the “increase in number of surviving crypts compared to vehicle control” value with small intestinal crypts (post treatment 0.1 mg/kg s.c. twice daily for four days post irradiation, non-significant p>0.05) came out at 47%. In addition, the “increase in number of surviving intestine crypts compared to vehicle control” value with small intestinal crypts (pretreatment 0.1 mg/kg s.c. twice daily for three days prior irradiation, p<0.05) was “two”. In addition, the “level of proliferation in the small intestinal crypts” value in assay [1] (0,1 mg/kg single injection s.c.) was “increased proliferation at cell positions 6-13”; in assay [1] (1 mg/kg single injection s.c.), “stimulation was evident throughout the proliferative zone”.
Take LEPVYPGDNATPEQLAQYAADLRRYINSLTRPRY (ends and bridges not checked) [[Leu17; Ser30]hPP3-36]: in the assay with human Y4 receptor, the “agonist potency (inositol phosphate turnover, transfected COS-7 cells): fold greater at Y4 than at Y1 receptor” value is no less than 200 fold and the “agonist potency (inositol phosphate turnover, transfected COS-7 cells): fold greater at Y4 than at Y2 receptor” value is no less than 1000 fold.
In the same order, the values of PLEPVYPGDNATPEQMAQYAADLRRYINALTRPRY (ends and bridges not checked) [[Ala30]hPP2-36] are no less than 200 fold and no less than 1000 fold.
